Measured values: patent publication US20070270421A1, “Novel pyridine Derivative and Pyrimidine Derivative (1)” (priority 2004, published 2007)

These compounds were tested against T1, HGFR (His6-HGFR cytoplasmic domain) (Homo sapiens, UniProt P08581) (assay: Inhibitory activity against HGFR tyrosine kinase activity (HTRF)). Conditions: biotin-poly(GT), ATP, 30° C. 10 min, read-out: IC50 (concentration necessary to inhibit HGFR kinase activity by 50%).
T1 construct: made in house; host or cells: Spodoptera frugiperda Sf9 insect cells (baculovirus, pFastBac-HT)
Assay type: biochemical
In short: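 Baculovirus/Sf9-expressed N-terminal His6-tagged HGFR cytoplasmic domain (from Lys974), Ni-NTA purified, phosphorylated biotin-poly(GT) in Hepes pH 7.4 with MgCl2/MnCl2. ATP added as 4 μM solution; 10 min at 30° C., stopped with EDTA. Phosphotyrosine product detected by HTRF.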

T1 sequence (P08581 956-1390 limits assumed): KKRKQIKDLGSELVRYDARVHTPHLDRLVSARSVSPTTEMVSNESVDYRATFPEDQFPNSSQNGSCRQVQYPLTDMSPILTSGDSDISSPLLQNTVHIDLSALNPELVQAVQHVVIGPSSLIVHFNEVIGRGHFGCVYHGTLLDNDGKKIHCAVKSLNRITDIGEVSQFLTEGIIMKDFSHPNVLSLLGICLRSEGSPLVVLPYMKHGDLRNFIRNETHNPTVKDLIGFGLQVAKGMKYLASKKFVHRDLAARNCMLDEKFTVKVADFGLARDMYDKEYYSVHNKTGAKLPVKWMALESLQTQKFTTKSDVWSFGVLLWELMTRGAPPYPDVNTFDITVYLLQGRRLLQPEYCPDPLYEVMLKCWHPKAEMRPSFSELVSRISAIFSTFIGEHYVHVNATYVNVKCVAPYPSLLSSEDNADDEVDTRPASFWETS

Structure (SMILES) | IC50
O=C(Cc1ccccc1)NC(=O)Nc1ccc(Oc2ccnc(NC(=O)N3CCCC3)c2)c(F)c1 [Example 43, 4-{2-Fluoro-4-[3-(2-phenylacetyl)ureido]phenoxy}-2-[(pyrrolidin-1-yl)carbonylamino]pyridine] | 83 nM
O=C(Cc1ccccc1)NC(=O)Nc1ccc(Oc2ccnc(NC(=O)N3CCOCC3)c2)c(F)c1 [Example 48, Morpholine-4-carboxylic acid {4-[2-fluoro-4-(3-phenylacetylureido)phenoxy]pyridin-2-yl}amide] | 56 nM
O=C(CC(=O)Nc1ccc(Oc2ccnc(NC(=O)N3CCC(N4CCCC4)CC3)c2)cc1F)Nc1ccc(F)cc1 [Example 82, N-(4-Fluorophenyl)-N′-[2-fluoro-4-(2-{[4-(pyrrolidin-1-yl)piperidine-1-carbonyl]amino}pyridin-4-yloxy)phenyl]malonamide] | 66 nM
O=C(CC(=O)Nc1ccc(Oc2ccnc(NC(=O)C3CC3)c2)cc1F)Nc1ccc(F)cc1 [Example 77, N-(4-Fluorophenyl)-N′-{4-[2-(cyclopropanecarbonylamino)pyridin-4-yloxy]-2-fluorophenyl}malonamide] | 13 nM
CN1CCC(N(C)C(=O)Nc2cc(Oc3ccc(NC(=O)CC(=O)Nc4ccc(F)cc4)cc3F)ccn2)CC1 [Example 89, N-(3-Fluoro-4-{2-[3-methyl-3-(1-methylpiperidin-4-yl)ureido]pyridin-4-yloxy}phenyl)-N′-(4-fluorophenyl)malonamide] | 38 nM
CN1CCC(N(C)C(=O)Nc2cc(Oc3ccc(NC(=S)NC(=O)Cc4ccccc4)cc3F)ccn2)CC1 [Example 28, 3-{4-[2-Fluoro-4-(3-phenylacetylthioureido)phenoxy]pyridin-2-yl}-1-methyl-1-(1-methylpiperidin-4-yl)urea] | 75 nM
O=C(Cc1ccccc1)NC(=S)Nc1ccc(Oc2ccnc(NC(=O)N3CCC(O)CC3)c2)c(F)c1 [Example 15, 4-{2-Fluoro-4-[3-(2-phenylacetyl)thioureido]phenoxy}-2-[(4-hydroxypiperidin-1-yl)carbonylamino]pyridine] | < 30 nM
O=C(CC(=O)Nc1ccc(Oc2ccnc(NC(=O)N3CCCC3)c2)c(F)c1)Nc1ccc(F)cc1 [Example 56, N-(4-Fluorophenyl)-N′-(3-fluoro-4-{2-[(pyrrolidine-1-carbonyl)amino]pyridin-4-yloxy}phenyl)malonamide] | 56 nM
CN1CCCN(C(=O)Nc2cc(Oc3ccc(NC(=O)CC(=O)Nc4ccc(F)cc4)c(F)c3)ccn2)CC1 [Example 92, N-(2-Fluoro-4-{2-[(4-methyl-[1,4]diazepane-1-carbonyl)amino]pyridin-4-yloxy}phenyl)-N′-(4-fluorophenyl)malonamide] | 78 nM
CN1CCN(C(=O)Nc2cc(Oc3ccc(NC(=O)NC(=O)Cc4ccccc4)cc3F)ccn2)CC1 [Example 50, 4-Methylpiperazine-1-carboxylic acid {4-[2-fluoro-4-(3-phenylacetylureido)phenoxy]pyridin-2-yl}amide] | 190 nM
O=C(Cc1ccc(F)cc1)NC(=S)Nc1ccc(Oc2ccnc(NC(=O)N3CCCC3)c2)cc1 [Example 9, Pyrrolidine-1-carboxylic acid [4-(4-{3-[2-(4-fluorophenyl)acetyl]thioureido}phenoxy)pyridin-2-yl]amide] | 53 nM

The remaining lines, values ahead:

IC50 | Structure (SMILES)
73 nM | CN1CCC(N(C)C(=O)Nc2cc(Oc3ccc(NC(=O)NC(=O)Cc4ccccc4)cc3F)ccn2)CC1 [Example 52, 3-{4-[2-Fluoro-4-(3-phenylacetylureido)phenoxy]pyridin-2-yl]-1-methyl-1-(1-methylpiperidin-4-yl)urea]
64 nM | CN(C)C(=O)Nc1cc(Oc2ccc(NC(=S)NC(=O)CC3CC4CCC3C4)cc2F)ccn1 (stereo not drawn) [Example 17, 2-[(Dimethylamino)carbonylamino]-4-{2-fluoro-4-[3-(2-norbornaneacetylthio)ureido]phenoxy}pyridine]
54 nM | Cc1cc(NC(=S)NC(=O)Cc2ccc(F)cc2)ccc1Oc1ccnc(NC(=O)N2CCOCC2)c1 [Example 24, Morpholine-4-carboxylic acid (4-{2-methyl-4-[3-(4-fluorophenyl)acetylthioureido]phenoxy}pyridin-2-yl)amide]
45 nM | CN(C)C(=O)Nc1cc(Oc2ccc(NC(=O)NC(=O)Cc3ccccc3)cc2F)ccn1 [Example 44, 2-[(Dimethylamino)carbonylamino]-4-{2-fluoro-4-[3-(2-phenylacetyl)ureido]phenoxy}pyridine]
88 nM | O=C(Cc1ccccc1)NC(=S)Nc1ccc(Oc2ccnc(NC(=O)N3CCOCC3)c2)c(Cl)c1 [Example 11, 4-{2-Chloro-4-[3-(2-phenylacetyl)thioureido]phenoxy}-2-[(morpholin-4-yl)carbonylamino]pyridine]
71 nM | O=C(Cc1ccc(F)cc1)NC(=S)Nc1ccc(Oc2cc(NC(=O)N3CCCC3)ncn2)c(F)c1 [Example 3, Pyrrolidine-1-carboxylic acid [6-(2-fluoro-4-{3-[2-(4-fluorophenyl)acetyl]thioureido}phenoxy)pyrimidin-4-yl]amide]
96 nM | Cc1cc(Oc2ccnc(NC(=O)N3CCC(N4CCCC4)CC3)c2)ccc1NC(=O)CC(=O)Nc1ccc(F)cc1 [Example 85, N-(4-Fluorophenyl)-N′-[2-methyl-4-(2-{[(4-pyrrolidin-1-yl)piperidine-1-carbonyl]amino}pyridin-4-yloxy)phenyl]malonamide]
110 nM | CCN(CC)CCCN(C)C(=O)Nc1cc(Oc2ccc(NC(=S)NC(=O)Cc3ccc(F)cc3)cc2F)ccn1 [Example 22, 1-(3-Diethylaminopropyl)-3-[4-(2-fluoro-4-{3-[2-(4-fluorophenyl)acetyl]thioureido}phenoxy)pyridin-2-yl]-1-methylurea]
110 nM | O=C(Cc1ccc(F)cc1)NC(=S)Nc1ccc(Oc2ccnc(NC(=O)N3CCCC3)c2)c(F)c1 [Example 13, 4-(2-Fluoro-4-{3-[2-(4-fluorophenyl)acetyl]thioureido}phenoxy)-2-[(pyrrolidin-1-yl)carbonylamino]pyridine]
91 nM | O=C(Cc1ccccc1)NC(=O)Nc1ccc(Oc2ccnc(NC(=O)N3CCC(N4CCCC4)CC3)c2)c(F)c1 [Example 45, 4-{2-Fluoro-4-[3-(2-phenylacetyl)ureido]phenoxy}-2-{[4-(pyrrolidin-1-yl)piperidin-1-yl]carbonylamino}pyridine]
